Read-outs that look alike come from different tables or passages of the source.
How the values were obtained:
Type in all cases: biochemical
TACE = target: T1, TACE (Homo sapiens, UniProt P78536); experiment: TACE inhibition experiment (in vitro)
T1 construct: made in house; host or cells: mammalian cells or insect cells

Human MMP1 = target: T2, Human MMP1 (Homo sapiens, UniProt P03956); experiment: MMP1 inhibition experiment; settings: read-out: IC50 value MMP-1
T2 construct: purchased Calbiochem 444208
T2 sequence (P03956 100-469): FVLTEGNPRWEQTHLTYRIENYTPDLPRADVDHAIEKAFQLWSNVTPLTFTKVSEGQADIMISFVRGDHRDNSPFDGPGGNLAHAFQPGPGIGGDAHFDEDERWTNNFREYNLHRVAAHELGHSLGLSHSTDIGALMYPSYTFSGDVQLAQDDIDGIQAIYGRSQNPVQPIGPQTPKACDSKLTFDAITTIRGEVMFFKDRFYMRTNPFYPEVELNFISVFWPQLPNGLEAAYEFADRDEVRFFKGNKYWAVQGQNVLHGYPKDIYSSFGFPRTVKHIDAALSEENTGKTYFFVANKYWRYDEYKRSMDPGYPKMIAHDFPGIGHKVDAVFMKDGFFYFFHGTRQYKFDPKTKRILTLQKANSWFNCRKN

Human MMP2 = target: T3, Human MMP2 (Homo sapiens, UniProt P08253); experiment: MMP2 inhibition experiment; settings: concentration required for 50% inhibition of enzyme activity; read-out: IC50 value MMP-2
T3 construct: purchased Calbiochem 444213
T3 sequence (P08253 110-660): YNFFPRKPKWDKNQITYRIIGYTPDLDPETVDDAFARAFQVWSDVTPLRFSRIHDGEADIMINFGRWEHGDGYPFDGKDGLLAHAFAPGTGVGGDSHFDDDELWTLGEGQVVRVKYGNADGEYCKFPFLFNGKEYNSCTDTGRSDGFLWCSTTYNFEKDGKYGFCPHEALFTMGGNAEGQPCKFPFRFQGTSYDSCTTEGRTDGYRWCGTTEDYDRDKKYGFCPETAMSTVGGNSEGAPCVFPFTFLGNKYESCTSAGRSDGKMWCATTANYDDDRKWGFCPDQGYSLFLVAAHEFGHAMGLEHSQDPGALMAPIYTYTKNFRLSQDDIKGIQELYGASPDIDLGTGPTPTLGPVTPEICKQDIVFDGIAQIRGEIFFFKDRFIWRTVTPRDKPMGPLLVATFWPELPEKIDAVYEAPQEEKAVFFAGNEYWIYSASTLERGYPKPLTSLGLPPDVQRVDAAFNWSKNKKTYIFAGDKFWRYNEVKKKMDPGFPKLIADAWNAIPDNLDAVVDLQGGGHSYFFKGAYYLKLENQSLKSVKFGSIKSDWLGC

Human MMP3 = target: T4, Human MMP3 (Homo sapiens, UniProt P08254); experiment: MMP3 inhibition experiment; settings: concentration required for 50% inhibition of enzyme activity; read-out: IC50 value MMP-3
T4 construct: purchased Calbiochem 444217
T4 sequence (P08254 100-272 limits assumed): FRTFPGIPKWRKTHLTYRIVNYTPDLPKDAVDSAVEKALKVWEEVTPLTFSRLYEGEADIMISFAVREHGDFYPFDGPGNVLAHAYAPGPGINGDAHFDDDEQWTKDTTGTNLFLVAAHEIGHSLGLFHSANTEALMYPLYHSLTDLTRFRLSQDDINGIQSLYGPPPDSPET
In short: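 Fluorescence-quenched substrate NFF-3 (MOCAc/Dnp peptide, 20 μM as prepared) cleaved by 5 ng human MMP3 over 5 hours at 37° C, with inhibition measured from substrate fluorescence.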

Human MMP8 = target: T5, Human MMP8 (Homo sapiens, UniProt P22894); experiment: MMP8 inhibition experiment; settings: concentration required for 50% inhibition of enzyme activity; read-out: IC50 value MMP-8
T5 construct: purchased Calbiochem 444229
T5 sequence (P22894 101-467): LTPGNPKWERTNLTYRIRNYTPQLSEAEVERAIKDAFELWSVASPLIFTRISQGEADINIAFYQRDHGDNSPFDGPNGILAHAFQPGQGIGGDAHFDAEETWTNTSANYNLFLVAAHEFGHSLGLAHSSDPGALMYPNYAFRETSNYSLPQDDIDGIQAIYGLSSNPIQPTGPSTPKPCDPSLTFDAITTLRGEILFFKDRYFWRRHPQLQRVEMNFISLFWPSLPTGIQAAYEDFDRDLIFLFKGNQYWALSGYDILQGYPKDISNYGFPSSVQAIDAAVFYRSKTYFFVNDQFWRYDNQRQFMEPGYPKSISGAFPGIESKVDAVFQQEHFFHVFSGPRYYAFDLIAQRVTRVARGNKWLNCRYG
Experimental: MMP inhibition experiment may be carried out using a fluorescent synthetic substrate according to, for example, the methods of Bickett et al. (D. Mark Bickett et al., Anal. Biochem., 1993, 212, 58-64) and Nagase et al. (H. Nagase et al., J. Biol. Chem., 1994, 269, 20952-20957). The methods of inhibition experiments carried out for various MMPs are described below.
Human MMP8 (Calbiochem #444229) in amount of 90 μL (30 ng) was activated by mixing with 10 μL of 10 mM APMA, followed by reaction for 1 hour at 37° C. This enzyme solution in amount of 10 μL was diluted to 90 μL with the assay buffer A, which was added to 90 μL of […] fluorescent substrate (MOCAc-Pro-Leu-Gly-Leu-A2pr(Dnp)-Ala-Arg-NH2, Peptide Institute, Inc., #3163-v) prepared in the assay buffer B, followed by reaction for 5 hours at 37° C.

Human MMP9 = target: T6, Human MMP9 (Homo sapiens, UniProt P14780); experiment: MMP9 inhibition experiment; settings: read-out: IC50 value MMP-9
T6 construct: purchased Calbiochem 444231
T6 sequence (P14780 107-707 limits assumed): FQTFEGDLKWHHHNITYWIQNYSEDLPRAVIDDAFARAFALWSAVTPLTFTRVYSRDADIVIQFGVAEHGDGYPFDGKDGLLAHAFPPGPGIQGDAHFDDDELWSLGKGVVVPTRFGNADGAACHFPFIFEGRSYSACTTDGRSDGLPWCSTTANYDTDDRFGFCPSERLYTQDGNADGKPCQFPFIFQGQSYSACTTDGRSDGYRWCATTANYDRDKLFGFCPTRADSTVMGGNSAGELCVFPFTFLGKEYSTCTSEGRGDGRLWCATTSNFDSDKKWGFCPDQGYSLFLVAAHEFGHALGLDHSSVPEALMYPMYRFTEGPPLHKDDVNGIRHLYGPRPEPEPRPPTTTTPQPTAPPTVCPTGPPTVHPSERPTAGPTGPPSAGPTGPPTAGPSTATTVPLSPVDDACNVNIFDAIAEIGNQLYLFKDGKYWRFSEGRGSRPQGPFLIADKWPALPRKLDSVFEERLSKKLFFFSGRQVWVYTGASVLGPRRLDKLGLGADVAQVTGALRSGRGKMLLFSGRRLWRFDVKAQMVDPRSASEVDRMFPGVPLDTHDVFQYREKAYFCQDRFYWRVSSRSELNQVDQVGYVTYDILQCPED

Human MMP13 = target: T7, Human MMP13 (Homo sapiens, UniProt P45452); experiment: MMP13 inhibition experiment; settings: concentration required for 50% inhibition of enzyme activity; read-out: IC50 value MMP-13
T7 construct: purchased Chemicon CC068

Human MMP14 = target: T8, Human MMP14 (Homo sapiens, UniProt P50281); experiment: MMP14 inhibition experiment; settings: concentration required for 50% inhibition of enzyme activity; read-out: IC50 value MMP-14
T8 construct: purchased Biogenesis or Calbiochem 5980-1461 or 475935
In short: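 Fluorescence assay: substrate Dnp-Pro-Cha-Gly-Cys(Me)-His-Ala-Lys(Nma)-NH2 (20 μM before equal-volume mixing) incubated at 37° C for 5 hours with 4 ng human MMP14.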

Human MMP17 = target: T9, Human MMP17 (Homo sapiens, UniProt Q9ULZ9); experiment: MMP17 inhibition test; settings: concentration required for 50% inhibition of enzyme activity; read-out: IC50 value MMP-17
T9 construct: purchased Calbiochem 475940
T9 sequence (Q9ULZ9 126-300 limits assumed): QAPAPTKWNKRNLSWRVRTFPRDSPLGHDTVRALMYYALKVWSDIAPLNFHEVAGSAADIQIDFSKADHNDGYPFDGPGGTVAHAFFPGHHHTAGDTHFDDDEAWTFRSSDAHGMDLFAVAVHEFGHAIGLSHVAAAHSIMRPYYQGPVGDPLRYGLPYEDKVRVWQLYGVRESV

[1] = concentration required for 50% inhibition of enzyme activity

T1 sequence (P78536 215-824): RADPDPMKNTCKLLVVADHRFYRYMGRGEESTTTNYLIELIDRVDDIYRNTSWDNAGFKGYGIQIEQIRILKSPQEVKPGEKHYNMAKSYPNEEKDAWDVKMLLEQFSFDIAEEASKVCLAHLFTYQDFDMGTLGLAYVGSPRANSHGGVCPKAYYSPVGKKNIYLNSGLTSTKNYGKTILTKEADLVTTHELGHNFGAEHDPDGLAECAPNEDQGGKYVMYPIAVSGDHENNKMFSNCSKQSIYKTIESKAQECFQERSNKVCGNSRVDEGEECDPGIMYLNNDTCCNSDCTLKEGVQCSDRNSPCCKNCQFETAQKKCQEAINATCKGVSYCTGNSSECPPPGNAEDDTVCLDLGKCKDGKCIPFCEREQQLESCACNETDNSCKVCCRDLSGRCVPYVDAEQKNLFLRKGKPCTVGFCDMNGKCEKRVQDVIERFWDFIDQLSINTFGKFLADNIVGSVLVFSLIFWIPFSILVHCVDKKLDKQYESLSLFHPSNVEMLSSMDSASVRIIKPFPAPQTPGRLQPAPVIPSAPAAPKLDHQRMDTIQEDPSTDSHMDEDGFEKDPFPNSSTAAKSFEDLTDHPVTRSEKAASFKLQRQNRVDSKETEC

Row | IC50 (TACE) [µM] | IC50 (Human MMP1) [µM] | IC50 (Human MMP2) [µM] | IC50 (Human MMP3) [µM] | IC50 (Human MMP8) [µM] | IC50 (Human MMP9) [µM] | IC50 (Human MMP13) [µM] | IC50 (Human MMP14) [µM] | IC50 (Human MMP17) [µM] | IC50 (TACE; [1]) [µM] | IC50 (Human MMP9; [1]) [µM] | SMILES
1 | – | 65 | 7 | 0.28 | 9 | – | 3.3 | 30 | 0.22 | 0.015 | 40 | Cc1cc(COc2ccc(S(=O)(=O)CC(C3CCC4(CC3)OCCO4)N(O)C=O)cc2)c2ccccc2n1 (stereo not drawn) [Example I-28, N-{1-(1,4-dioxaspiro[4.5]dec-8-yl)-2-[4-(2-methylquinolin-4-ylmethoxy)benzenesulfonyl]ethyl}-N-hydroxyformamide]
2 | 0.0076 | > 100 | 19 | 1.8 | 19 | > 100 | 18 | 90 | 0.96 | – | – | Cc1cc(COc2ccc(S(=O)(=O)CC(CC3CCOCC3)N(O)C=O)cc2)c2ccccc2n1 (stereo not drawn) [Example I-29]
3 | 0.012 | > 100 | 83 | 24 | > 100 | > 100 | > 100 | > 100 | 8 | – | – | CCN1CCC(=CC(CS(=O)(=O)c2ccc(OCc3cc(C)nc4ccccc34)cc2)N(O)C=O)CC1 (stereo not drawn) [Example I-30]
4 | 0.012 | 57 | 12 | 2 | 46 | 54 | 22 | 50 | 2.2 | – | – | Cc1cc(COc2ccc(S(=O)(=O)CC(CCC3=CCCC(OC=O)C3)N(O)C=O)cc2)c2ccccc2n1 (stereo not drawn) [Example I-38]

Further lines, the compound ahead of its results:

Row | SMILES | IC50 (TACE) [µM] | IC50 (Human MMP1) [µM] | IC50 (Human MMP2) [µM] | IC50 (Human MMP3) [µM] | IC50 (Human MMP8) [µM] | IC50 (Human MMP9) [µM] | IC50 (Human MMP13) [µM] | IC50 (Human MMP14) [µM] | IC50 (Human MMP17) [µM] | IC50 (TACE; [1]) [µM] | IC50 (Human MMP9; [1]) [µM]
5 | Cc1cccc(C(CS(=O)(=O)c2ccc(OCc3cc(C)nc4ccccc34)cc2)N(O)C=O)c1 (stereo not drawn) [Example I-22] | 0.0042 | 60 | 40 | 7.3 | 59.5 | 53 | 21 | 42 | 3.5 | – | –
6 | Cc1cc(COc2ccc(S(=O)(=O)CC(C=C3CCN(C(=O)C(C)(C)C)CC3)N(O)C=O)cc2)c2ccccc2n1 (stereo not drawn) [Example I-25, N-{1-[1-(2,2-Dimethylpropionyl)piperidin-4-ylidenemethyl]-2-[4-(2-methylquinolin-4-ylmethoxy)benzenesulfonyl]ethyl}-N-hyroxyformamide] | 0.01 | 40 | 1.3 | 0.11 | 5 | 8 | 0.7 | 20 | 0.12 | – | –
7 | Cc1cncc(C(CS(=O)(=O)c2ccc(OCc3cc(C)nc4ccccc34)cc2)N(O)C=O)c1 (stereo not drawn) [Example I-31] | 0.0028 | > 100 | 50 | 3.2 | 62 | > 100 | 26 | 90 | 1.8 | – | –
8 | Cc1ccc(C(CS(=O)(=O)c2ccc(OCc3cc(C)nc4ccccc34)cc2)N(O)C=O)cn1 (stereo not drawn) [Example I-32] | 0.0025 | > 100 | 18 | 2.7 | 22 | 44 | 9 | 53 | 1.5 | – | –
9 | COc1ccc(CCC(CS(=O)(=O)c2ccc(OCc3cc(C)nc4ccccc34)cc2)N(O)C=O)cc1 (stereo not drawn) [Example I-35] | 0.032 | 50 | 4.2 | 10 | 35 | 37 | 7.8 | 38 | 6 | – | –
10 | Cc1ccc(CCC(CS(=O)(=O)c2ccc(OCc3cc(C)nc4ccccc34)cc2)N(O)C=O)cc1 (stereo not drawn) [Example I-36] | 0.17 | 70 | 6 | 9.7 | 68 | 43 | 20 | 37 | 20 | – | –
11 | Cc1ccc(CCCC(CS(=O)(=O)c2ccc(OCc3cc(C)nc4ccccc34)cc2)N(O)C=O)cc1 (stereo not drawn) [Example I-37] | 0.17 | 57 | 2.7 | 2 | 25 | 22 | 6 | 33 | 1.1 | – | –

From US7511144B2, “Reverse hydroxamic acid derivatives” (Kaken Pharmaceutical Co., Ltd., priority 2001, dated 2009)
